Results on 3 compounds are retold here after US5585504A, “Process of making cox-2 inhibitors having a lactone bridge” (Merck & Co., Inc., priority 1994, dated 1996).

Each structure is given as a SMILES string. Read-outs that look alike come from different tables or passages of the source.

The test system of the test is carrageenan-induced paw edema. As to the kind of experiment: Rat paw edema assay (carrageenan). It counts as in vivo, Male Sprague-Dawley rats. The settings on record: po, 1 hr before carrageenan, paw volume 3 hr after. The method, then: Male Sprague-Dawley rats (150-200g) were fasted overnight and were given po either vehicle (5% tween 80 or 1% methocel) or a test compound at 9-10 am. One hr later, a line was drawn using a permanent marker at the level above the ankle in one hind paw to define the area of the paw to be monitored. The paw volume (VOh) was measured using a plethysmometer (Ugo-Basile,Italy) based on the principle of water displacement. The animals were then injected subplantarly with 50 ul of a 1% carrageenan solution in saline (FMC Corp, Maine) into the paw using an insulin syringe with a 25-gauge needle (i.e. 500 ug carrageenan per paw). Three hr later, the paw volume (V3h) was measured and the increases in paw volume (V3h -VOh) were calculated. The animals were euthanized by CO2 aphyxiation and the absence or presence of stomach lesions scored. Stomach scores were expressed as the sum of total lesions in mm. Paw edema data were compared with the vehicle-control group and percent inhibition calculated taking the values in the control group as 100%. […] All treatment groups were coded to eliminate observer bias.
For orientation: In the carrageenan paw model, swelling and tenderness develop within hours.

Take `CS(=O)(=O)c1ccc(C2=C(c3ccc(Cl)c(Cl)c3)C(=O)OC2)cc1`: the ED30 (Table I, column head not given) worked out at 0.23 mg/kg. Consider `COc1ccc2c(c1)c(CC(=O)O)c(C)n2C(=O)c1ccc(Cl)cc1` [Indomethacin, reference compound], for which the ED30 (read-out: ED30) was 1 mg/kg. With `CS(=O)(=O)c1ccc(C2=C(c3ccc(F)c(Br)c3)C(=O)OC2)cc1`, the ED30 (Rattus norvegicus, 3 h, read-out: ED30 (Table I, column head not given)) is around 1 mg/kg.
